One test relates to B16. The test is described as follows: Concentration which produces 50% inhibition of proliferation of B16 melanoma cytotoxic cells after 40h of incubation was tested in vitro relative to paclitaxel (1). The class given is functional, Mus musculus.
The target of another test is Tubulin (Bos taurus) (UniProt Q6B856+Q862L2+Q862F3). The test is described as follows: Concentration which causes polymerization of 50% of the tubulin present in 15 min at 37 degree C was tested in vitro relative to paclitaxel (1). The format is functional.

This passage reports Ratio results from ChEMBL document CHEMBL1150456, “Synthesis of 2-O-heteroaroyl taxanes: evaluation of microtubule assembly promotion and cytotoxicity” (1995).

Where only a bound is given, the exact number is not on record here.

Consider `CC(=O)O[C@H]1C(=O)[C@]2(C)[C@@H](O)CC3OC[C@@]3(OC(C)=O)[C@H]2[C@H](OC(=O)c2ccsc2)[C@]2(O)C[C@H](OC(=O)[C@H](O)[C@@H](NC(=O)c3ccccc3)c3ccccc3)C(C)=C1C2(C)C` (stereo partly drawn), for which the Ratio was 2.1 in the test with B16 and 1.4 at Tubulin (Bos taurus).

On to `CC(=O)O[C@H]1C(=O)[C@]2(C)[C@@H](O)CC3OC[C@@]3(OC(C)=O)[C@H]2[C@H](OC(=O)c2ccco2)[C@]2(O)C[C@H](OC(=O)[C@H](O)[C@@H](NC(=O)c3ccccc3)c3ccccc3)C(C)=C1C2(C)C` (stereo partly drawn), for which the Ratio in the test on B16 was 14; at Tubulin (Bos taurus) it was 2.4.

With `CC(=O)O[C@H]1C(=O)[C@]2(C)[C@@H](O)CC3OC[C@@]3(OC(C)=O)[C@H]2[C@H](OC(=O)c2ccncc2)[C@]2(O)C[C@H](OC(=O)[C@H](O)[C@@H](NC(=O)c3ccccc3)c3ccccc3)C(C)=C1C2(C)C` (stereo partly drawn), the values for the Ratio with B16 and on Tubulin (Bos taurus) were above 36 and 7.3, respectively.

`CC(=O)O[C@H]1C(=O)[C@@]2(C)[C@H]([C@H](OC(=O)c3ccccc3)[C@]3(O)C[C@H](OC(=O)[C@H](O)[C@@H](NC(=O)c4ccccc4)c4ccccc4)C(C)=C1C3(C)C)[C@]1(OC(C)=O)CO[C@@H]1C[C@@H]2O` [PACLITAXEL]: the Ratio in the test on B16 and on Tubulin (Bos taurus) was 1 throughout.

Turning to `CC(=O)O[C@H]1C(=O)[C@]2(C)[C@@H](O)CC3OC[C@@]3(OC(C)=O)[C@H]2[C@H](OC(=O)c2cccnc2)[C@]2(O)C[C@H](OC(=O)[C@H](O)[C@@H](NC(=O)c3ccccc3)c3ccccc3)C(C)=C1C2(C)C` (stereo partly drawn), the Ratio in the test on B16 was above 36; on Tubulin (Bos taurus), 4.

Take `CC(=O)O[C@H]1C(=O)[C@]2(C)[C@@H](O)CC3OC[C@@]3(OC(C)=O)[C@H]2[C@H](OC(=O)c2ccoc2)[C@]2(O)C[C@H](OC(=O)[C@H](O)[C@@H](NC(=O)c3ccccc3)c3ccccc3)C(C)=C1C2(C)C` (stereo partly drawn): the Ratio is 8.2 in the test on B16 and 2.1 at Tubulin (Bos taurus).

On to `CC(=O)O[C@H]1C(=O)[C@]2(C)[C@@H](O)CC3OC[C@@]3(OC(C)=O)[C@H]2[C@H](OC(=O)c2ccccn2)[C@]2(O)C[C@H](OC(=O)[C@H](O)[C@@H](NC(=O)c3ccccc3)c3ccccc3)C(C)=C1C2(C)C` (stereo partly drawn), for which the figures for the Ratio in the test with B16 and at Tubulin (Bos taurus) were 8.7 and 2.8, respectively.

Regarding `CC(=O)O[C@H]1C(=O)[C@]2(C)[C@@H](O)CC3OC[C@@]3(OC(C)=O)[C@H]2[C@H](OC(=O)c2cccn2C)[C@]2(O)C[C@H](OC(=O)[C@H](O)[C@@H](NC(=O)c3ccccc3)c3ccccc3)C(C)=C1C2(C)C` (stereo partly drawn), the Ratio in the test with B16 and at Tubulin (Bos taurus) was 2.6 throughout.

For `CC(=O)O[C@H]1C(=O)[C@]2(C)[C@@H](O)CC3OC[C@@]3(OC(C)=O)[C@H]2[C@H](OC(=O)c2cccs2)[C@]2(O)C[C@H](OC(=O)[C@H](O)[C@@H](NC(=O)c3ccccc3)c3ccccc3)C(C)=C1C2(C)C` (stereo partly drawn), the Ratio in the test on B16 is 3.8; at Tubulin (Bos taurus), 1.1.
